Laboratory results published in patent publication US20100240745A1, “METHOD OF TREATMENT OF INFLAMMATION IN HYPERTENSIVE PATIENTS” (NICOX S.A., priority 2009, published 2010).
Marks after values point to notes of the source that are not given here.

Test: 13-week double-blind, randomized clinical trial: office systolic blood pressure (SBP) in osteoarthritic patients with hypertension treated with renin-angiotensin system blockers
Format: in vivo, human
Conditions: for Difference in mean changes of SBP vs naproxen 500 mg / Difference in mean changes of SBP vs placebo / mean change in systolic blood pressure (SBP) vs baseline, mean ± SE: 13-week study; for mean change in systolic blood pressure (SBP) vs baseline, mean ± SE: osteoarthritic hypertensive patients on RAS blockers alone or with a diuretic; for blood pressure elevation / BP destabilization (result in words): osteoarthritic hypertensive patients treated with at least a renin-angiotensin system blocking agent
Protocol: Effects of 4-(nitrooxy)butyl(2S)-2-(6-methoxy-2-naphthyl)propanoate (naproxcinod) and naproxen on systolic blood pressure (SBP).
The effects of two twice daily drug regimens (375 mg bid and 750 mg bid) of 4-(nitrooxy)butyl(2S)-2-(6-methoxy-2-naphthyl)propanoate (naproxcinod) on systolic blood pressure (SBP) vs. naproxen and placebo were studied in a 13-week double-blind, randomized clinical trial involving 207 osteoarthritic patients and hypertension treated with renin-angiotensin system blockers alone or in combination with a diuretic.
Patients were sequentially randomized in a 1:1:1:1 ratio using a validated remote automated system to receive for the 13-week study treatment period one of 4 treatment groups: • naproxcinod 750 mg twice daily, • naproxcinod 375 mg twice daily, • naproxen 500 mg (equimolar dose of naproxcinod 750 mg) twice daily, or • placebo twice daily.
The office SBP was measured in a standardized fashion by mercury column or aneroid device in supine position, at rest, at baseline and 2, 6, and 13 weeks after study treatment initiation. SBP measurements were to be performed 2 to 4 hours post-morning dose.
The comparability of the patients in the 4 treatment groups was determined from the demographic data and baseline BP values.

## COc1ccc2cc([C@H](C)C(=O)OCCCCO[N+](=O)[O-])ccc2c1 [naproxcinod, 4-(nitrooxy)butyl(2S)-2-(6-methoxy-2-naphthyl)propanoate]
375 mg twice daily
  Difference in mean changes of SBP vs naproxen 500 mg: −4.2 mmHg
  Difference in mean changes of SBP vs placebo: 1.9 mmHg
  mean change in systolic blood pressure (SBP) vs baseline, mean ± SE: −2.7 ± 1.7 mmHg
750 mg twice daily
  Difference in mean changes of SBP vs naproxen 500 mg: −6.5 mmHg
  Difference in mean changes of SBP vs placebo: −0.4* mmHg
  mean change in systolic blood pressure (SBP) vs baseline, mean ± SE: −5.0 ± 1.7 mmHg
  blood pressure elevation / BP destabilization (result in words): less BP destabilization compared to naproxen
Listed as 4-(nitrooxy)butyl(2S)-2-(6-methoxy-2-naphthyl)propanoate
  blood pressure elevation / BP destabilization (result in words): does not induce blood pressure elevation

## COc1ccc2cc([C@H](C)C(=O)O)ccc2c1 [naproxen, reference compound]
500 mg twice daily
  Difference in mean changes of SBP vs placebo: 6.1** mmHg
  mean change in systolic blood pressure (SBP) vs baseline, mean ± SE: 1.5 ± 1.9 mmHg
